According to patent US6737383B1, “Herbicidal oxadiazolidines” (priority 1999, dated 2004):

Assays:
[1] = test system: bedstraw; assay: Test B pre/postemergence bedstraw; type: in vivo, Galium aparine
Outline: (§1)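 Response is a visual 0-to-10 score relative to untreated plants, where 0 means no effect and 10 means complete control, taken twelve to sixteen days after application. Treatments went onto soil at planting and onto foliage of 1- to 4-leaf plants, using a surfactant-containing non-phytotoxic solvent.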

[2] = test system: blackgrass; assay: Test B pre/postemergence blackgrass; type: in vivo, Alopecurus myosuroides
Outline: as §1

[3] = test system: surinam grass; assay: Test B pre/postemergence surinam grass; type: in vivo, Brachiaria decumbens
Outline: as §1

[4] = test system: cocklebur; assay: Test B pre/postemergence cocklebur; type: in vivo, Xanthium strumarium
Outline: as §1

[5] = test system: corn; assay: Test B pre/postemergence corn; type: in vivo, Zea mays
Outline: as §1

[6] = test system: crabgrass; assay: Test B pre/postemergence crabgrass; type: in vivo, Digitaria sanguinalis
Outline: as §1

[7] = test system: giant foxtail; assay: Test B pre/postemergence giant foxtail; type: in vivo, Setaria faberii
Outline: as §1

[8] = test system: morningglory; assay: Test B pre/postemergence morningglory; type: in vivo, Ipomoea hederacea
Outline: as §1

[9] = test system: pigweed; assay: Test B pre/postemergence pigweed; type: in vivo, Amaranthus retroflexus
Outline: as §1

[10] = test system: rape; assay: Test B pre/postemergence rape; type: in vivo, Brassica napus
Outline: as §1

[11] = test system: soybean; assay: Test B pre/postemergence soybean; type: in vivo, Glycine max
Outline: as §1

[12] = test system: sugar beet; assay: Test B pre/postemergence sugar beet; type: in vivo, Beta vulgaris
Outline: as §1

[13] = test system: velvetleaf; assay: Test B pre/postemergence velvetleaf; type: in vivo, Abutilon theophrasti
Outline: as §1

[14] = test system: wheat; assay: Test B pre/postemergence wheat; type: in vivo, Triticum aestivum
Outline: as §1

[15] = test system: wild oat; assay: Test B pre/postemergence wild oat; type: in vivo, Avena fatua
Outline: as §1

[16] = test system: purple nutsedge; assay: Test B pre/postemergence purple nutsedge; type: in vivo, Cyperus rotundus
Outline: as §1

[17] = test system: rice; assay: Test B flood test rice; type: in vivo, Oryza sativa; conditions: Pre-emergence
Outline: (§2)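 Read-out is a visual response score from 0 (no effect) to 10 (complete control), assigned by comparison with untreated controls. Treatment was applied at the 2-leaf stage, and plants stayed in the greenhouse for twelve to sixteen days before scoring.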

[18] = test system: smallflower flatsedge; assay: Test B flood test smallflower flatsedge; type: in vivo, Cyperus difformis; conditions: Pre-emergence
Outline: as §2

[19] = test system: duck salad; assay: Test B flood test duck salad; type: in vivo, Heteranthera limosa; conditions: Pre-emergence
Outline: as §2

[20] = test system: bamyardgrass; assay: Test B flood test barnyardgrass; type: in vivo, Echinochloa crus-galli; conditions: Pre-emergence
Outline: as §2

[21] = Preemergence, Rate 31 g/ha, visual rating, scale 0 to 10 (0 no effect, 10 complete control)
[22] = Preemergence, Rate 62 g/ha, scale of 0 to 10 where 0 is no effect and 10 is complete control
[23] = Preemergence, Rate 250 g/ha, scale of 0 to 10 where 0 is no effect and 10 is complete control
[24] = Rate 31 g/ha, Postemergence, scale 0 to 10
[25] = Rate 62 g/ha, Postemergence, scale of 0 to 10 where 0 is no effect and 10 is complete control
[26] = Rate 125 g/ha, Postemergence, scale 0 to 10
[27] = Rate 125 g/ha, Preemergence, scale of 0 to 10 where 0 is no effect and 10 is complete control
[28] = Rate 1000 g/ha, scale 0 to 10 (0 no effect, 10 complete control)
[29] = Rate 125 g/ha, flood test species, scale 0 to 10 where 0 is no effect and 10 is complete control
[30] = Rate 250 g/ha, flood-test species, scale 0 to 10, 0 is no effect, 10 is complete control
[31] = Rate 500 g/ha, flood test species, scale 0 to 10 (0 no effect, 10 complete control)

CCOC(=O)C(C)N(C(=O)n1oc(=O)n(-c2c(C)cccc2C)c1=O)c1ccc(F)cc1 (stereo not drawn) [Compound 244]
0: Bedstraw plant response rating [1, 21] | Bedstraw plant response rating [1, 22] | Bedstraw plant response rating [1, 23] | Bedstraw plant response rating [1, 24] | Bedstraw plant response rating [1, 25] | Bedstraw plant response rating [1, 26] | Bedstraw plant response rating [1, 27] | Plant response rating (0 to 10; 0 is no effect, 10 is complete control), Bedstraw ([1]; Rate 250 g/ha, Postemergence) | Blackgrass plant response rating [2, 21] | Blackgrass plant response rating [2, 22] | Blackgrass plant response rating [2, 23] | Blackgrass plant response rating [2, 24] | Blackgrass plant response rating [2, 25] | Blackgrass plant response rating [2, 26] | Blackgrass plant response rating [2, 27] | Plant response rating (0 to 10; 0 is no effect, 10 is complete control), Blackgrass ([2]; Rate 250 g/ha, Postemergence) | B. signalgrass plant response rating [3, 21] | B. signalgrass plant response rating [3, 22] | B. signalgrass plant response rating [3, 23] | B. signalgrass plant response rating [3, 24] | B. signalgrass plant response rating [3, 25] | B. signalgrass plant response rating ([3]; Rate 125 g/ha, Postemergence, scale 0 (no effect) to 10 (complete control)) | B. signalgrass plant response rating [3, 27] | Plant response rating (0 to 10; 0 is no effect, 10 is complete control), B. signalgrass ([3]; Rate 250 g/ha, Postemergence) | Cocklebur plant response rating [4, 21] | Cocklebur plant response rating [4, 22] | Cocklebur plant response rating [4, 23] | Cocklebur plant response rating [4, 24] | Cocklebur plant response rating [4, 25] | Cocklebur plant response rating [4, 26] | Cocklebur plant response rating [4, 27] | Plant response rating (0 to 10; 0 is no effect, 10 is complete control), Cocklebur ([4]; Rate 250 g/ha, Postemergence) | Corn plant response rating [5, 21] | Corn plant response rating [5, 22] | Corn plant response rating [5, 23] | Corn plant response rating [5, 24] | Corn plant response rating [5, 25] | Corn plant response rating [5, 26] | Corn plant response rating [5, 27] | Plant response rating (0 to 10; 0 is no effect, 10 is complete control), Corn ([5]; Rate 250 g/ha, Postemergence) | Crabgrass plant response rating [6, 21] | Crabgrass plant response rating [6, 22] | Crabgrass plant response rating [6, 23] | Crabgrass plant response rating [6, 24] | Crabgrass plant response rating [6, 25] | Crabgrass plant response rating [6, 27] | Plant response rating (0 to 10; 0 is no effect, 10 is complete control), Crabgrass ([6]; Rate 250 g/ha, Postemergence) | Giant foxtail plant response rating [7, 21] | Giant foxtail plant response rating [7, 22] | Giant foxtail plant response rating [7, 23] | Giant foxtail plant response rating [7, 24] | Giant foxtail plant response rating [7, 25] | Giant foxtail plant response rating [7, 27] | Plant response rating (0 to 10; 0 is no effect, 10 is complete control), Giant foxtail ([7]; Rate 250 g/ha, Postemergence) | Morningglory plant response rating [8, 21] | Morningglory plant response rating [8, 22] | Morningglory plant response rating [8, 23] | Morningglory plant response rating [8, 24] | Morningglory plant response rating [8, 25] | Morningglory plant response rating [8, 27] | Plant response rating (0 to 10; 0 is no effect, 10 is complete control), Morningglory ([8]; Rate 250 g/ha, Postemergence) | Redroot pigweed plant response rating [9, 21] | Redroot pigweed plant response rating [9, 22] | Redroot pigweed plant response rating [9, 23] | Redroot pigweed plant response rating [9, 24] | Redroot pigweed plant response rating [9, 25] | Redroot pigweed plant response rating [9, 27] | Plant response rating (0 to 10; 0 is no effect, 10 is complete control), Redroot pigweed ([9]; Rate 250 g/ha, Postemergence) | Rape plant response rating [10, 21] | Rape plant response rating [10, 22] | Rape plant response rating [10, 23] | Rape plant response rating [10, 24] | Rape plant response rating [10, 25] | Rape plant response rating [10, 27] | Plant response rating (0 to 10; 0 is no effect, 10 is complete control), Rape ([10]; Rate 250 g/ha, Postemergence) | Soybean plant response rating [11, 21] | Soybean plant response rating [11, 22] | Soybean plant response rating [11, 23] | Soybean plant response rating [11, 25] | Soybean plant response rating [11, 27] | Sugarbeets plant response rating [12, 21] | Sugarbeets plant response rating [12, 22] | Sugarbeets plant response rating [12, 23] | Sugarbeets plant response rating [12, 25] | Sugarbeets plant response rating [12, 27] | Velvetleaf plant response rating [13, 21] | Velvetleaf plant response rating [13, 22] | Velvetleaf plant response rating [13, 23] | Velvetleaf plant response rating [13, 25] | Velvetleaf plant response rating [13, 27] | Wheat plant response rating [14, 21] | Wheat plant response rating [14, 22] | Wheat plant response rating [14, 23] | Wheat plant response rating [14, 25] | Wheat plant response rating [14, 27] | Wild oats plant response rating [15, 21] | Wild oats plant response rating [15, 22] | Wild oats plant response rating [15, 23] | Wild oats plant response rating [15, 25] | Wild oats plant response rating [15, 27] | Nutsedge plant response rating [16, 21] | Nutsedge plant response rating [16, 22] | Nutsedge plant response rating [16, 23] | Nutsedge plant response rating [16, 24] | Nutsedge plant response rating [16, 25] | Nutsedge plant response rating [16, 27] | Plant response rating (0 to 10; 0 is no effect, 10 is complete control), Nutsedge ([16]; Rate 250 g/ha, Postemergence) | Rice plant response rating [17, 28] | Rice plant response rating [17, 29] | Rice plant response rating [17, 30] | Rice plant response rating [17, 31] | S. Flatsedge plant response rating [18, 28] | S. Flatsedge plant response rating [18, 29] | S. Flatsedge plant response rating [18, 30] | S. Flatsedge plant response rating [18, 31] | Ducksalad plant response rating [19, 28] | Ducksalad plant response rating [19, 29] | Ducksalad plant response rating [19, 30] | Ducksalad plant response rating [19, 31] | Barnyardgrass plant response rating [20, 28] | Barnyardgrass plant response rating [20, 29] | Barnyardgrass plant response rating [20, 30] | Barnyardgrass plant response rating [20, 31]
